Patent US4496591A, “Insecticidal bis-carbamate sulfides” (priority 1981, dated 1985)

How the values were obtained:
Format in all cases: in vivo
[1] = test system: bean aphid (Aphis fabae Scop.); experiment: Bean aphid foliage spray test; parameters: key: A: excellent control; B: partial control; C: no control at 500 ppm; settings: 500 parts per million, 24 hour
Procedure: (§1) Suspensions of the test compounds were prepared by dissolving one gram of compound in 50 milliliters of acetone in which had been dissolved 0.1 gram (10 percent of the weight of compound) of an alkylphenoxy polyethoxyethanol surfactant, as an emulsifying or dispersing agent. The resulting solution was mixed into 150 milliliters of water to give roughly 200 milliliters of a suspension containing the compound in finely divided form. The thus-prepared stock suspension contained 0.5 percent by weight of compound. The concentrations in parts per million by weight employed in the tests described hereinbelow were obtained by appropriate dilutions of the stock suspension with water. The test procedures were as follows:
Adults and nymphal stages of the bean aphid (Aphis fabae Scop.) reared on potted dwarf nasturtium plants at 68°-70° F. and 50±5 percent relative humidity, constituted the test insects. For testing purposes, the number of aphids per pot were standardized to 100-150 by trimming plants containing excess aphids.
The test compounds were formulated by diluting the stock suspension with water to give a suspension containing 500 parts of test compound per million parts of final formulation.
The potted plants (one pot per compound tested) infested with 100-150 aphids, were placed on a revolving turntable and sprayed with 100-110 milliliters of test compound formulation by use of a DeVilbiss spray gun set at 40 psig. air pressure. This application, which lasted 25 seconds, was sufficient to wet the plants to run-off. As a control, 100-110 milliliters of a water-acetone-emulsifier solution containing no test compound was also sprayed on infested plants. After spraying, the pots were placed on their sides on a sheet of white standard mimeograph paper which had been previously ruled to facilitate counting. Temperature and humidity in the test room during the 24 hour holding period were 68°-70° F. and 50±5 percent, respectively. Aphids which fell onto the paper and were unable to remain standing after being uprighted were considered dead. Aphids remaining on the plants were observed closely for movement and those which were unable to move the length of the body upon stimulation by prodding were considered dead.
(§2) In these tests the pesticidal activity of the compounds at the indicated dosage rate against aphid, Southern Armyworm, Bean Beetle and housefly was rated as follows: […]

[2] = test system: southern armyworm (Spodoptera eridania, (Cram.)) larvae; experiment: Southern armyworm leaf spray bait test; parameters: key: A: excellent control; B: partial control; C: no control at 500 ppm; settings: 500 parts per million, three days
Procedure: as §1
Larvae of the southern armyworm (Spodoptera eridania, (Cram.)), reared on Tendergreen bean plants at a temperature of 80±5° F. and a reative humidity of 50±5 percent, constituted the test insects.
The test compounds were formulated by diluting the stock suspension with water to give a suspension containing 500 parts of test compound per million parts of final formulation. Potted Tendergreen bean plants of standard height and age were placed on a revolving turntable and sprayed with 100-110 milliliters of test compound formulation by use of a DeVilbiss spray gun set at 40 psig air pressure. This application, which lasted 25 seconds, was sufficient to wet the plants to run-off. As a control, 100-110 milliliters of a water-acetone-emulsifier solution containing no test compound were also sprayed on infested plants. When dry, the paired leaves were separated and each one was placed in a 9 centimeter Petri dish lines with moistened filter paper. Five randomly selected larvae were introduced into each dish and the dishes were closed. The closed dishes were labeled and held at 80°-85° F. for three days. Although the larvae could easily consume the whole leaf within twenty-four hours, no more food was added. Larvae which were unable to move the length of the body, even upon stimulation by prodding, were considered dead.
as §2

[3] = test system: root-knot nematode, Meloidogyne incognita var. acrita; experiment: Nematocide test; parameters: key: 1: severe galling, equal to untreated plants; 2: moderate galling; 3: light galling; 4: very light galling; 5: no galling, perfect control; settings: 3.33 m.g. per jar, cucumber, approximately 3 weeks
Procedure: The test organism used was the infective migratory larvae of the root-knot nematode, Meloidogyne incognita var. acrita, reared in the greenhouse on roots of cucumber plants. Infected plants were removed from the culture, and the roots were chopped very finely. A small amount of this inoculum was added to a pint jar containing approximately 180 cc. of soil. The jars were capped and incubated for one week at room temperature. During this period eggs of the nematode were hatched, and the larval forms migrated into the soil.
Ten ml. of the test formulation were added to each of the two jars for each dosage tested. Following the addition of chemical, the jars were capped, and the contents thoroughly mixed on a ball mill for […].
The test compounds were formulated by a standard procedure of solution in acetone addition of an emulsifier, and dilution with water. Primary screening tests were conducted at 3.33 m.g. of the test compound per jar.
The jars were left capped at room temperature for a period of 48 hours, and the contents then transferred to 3 inch pots. Subsequently, the pots were seeded to cucumber as an indicator crop and placed in the greenhouse where they were cared for in the normal fashion for approximately 3 weeks.
The cucumber plants were then taken from the pots, the soil removed from the roots, and the amount of galling visually rated.
In the test for activity against nematodes activity was rated as follows: […]

Q: Which “Aphids, pesticidal activity rating” value [1] does the source give for `CSC(C)=NOC(=O)N(C)SN(C)C(=O)Oc1cccc(C=O)c1` [Compound 3] here?
A: A

Q: What about the “Southern Armyworm, pesticidal activity rating” value [2] of the same compound?
A: A

Q: What about the “Root-Knot Nematode, galling rating” value [3] of the same compound?
A: 1
